Assay results taken from patent publication US8552013B2, “Heterocyclic compounds based on N6-substituted adenine, methods of their preparation, their use for preparation of drugs, cosmetic preparations and growth regulators, pharmaceutical preparations, cosmetic preparations and growth regulators containing these compounds” (USTAV Experimentalni Botaniky Akademie Ved Ceske Republiky, priority 2001, dated 2013).

Assays:
[1] = test system: Amaranthus caudatus cotyledon/hypocotyl explants; experiment: Amaranthus bioassay, betacyanin content; format: in vivo; details: betacyanin content at the concentration with highest activity
[2] = test system: breast carcinoma cell line MCF-7; experiment: Calcein AM cytotoxicity, MCF7; format: cell-based, human; details: Homo sapiens, MCF7, 72 h, read-out: IC 50, MCF7
Source text: (§1) One of the parameters used, as the basis for cytotoxicity assays, is the metabolic activity of viable cells. For example, a microtiter assay, which uses the Calcein AM, is now widely used to quantitate cell proliferation and cytotoxicity. For instance, this assay is used in drug screening programs and in chemosensitivity testing. Because only metabolically active cells cleave Calcein AM, these assays detect viable cells exclusively. The quantity of reduced Calcein AM corresponds to the number of vital cells in the culture.
(§2) The cells were maintained in Nunc/Corning 80 cm^2 plastic tissue culture flasks and cultured in cell culture medium (DMEM with 5 g/l glucose, 2 mM glutamine, 100 U/ml penicillin, 100 μg/ml streptomycin, 10% fetal calf serum and sodium bicarbonate).
(§3) The cell suspensions that were prepared and diluted according to the particular cell type and the expected target cell density (2.500-30.000 cells per well based on cell growth characteristics) were added by pipette (80 μl) into 96/well microtiter plates. Inoculates were allowed a pre-incubation period of 24 hours at 37° C. and 5% CO2 for stabilisation. Four-fold dilutions of the intended test concentration were added at time zero in 20 μl aliquots to the microtiter plate wells. Usually, test compound was evaluated at six 4-fold dilutions. […] All drug concentrations were examined in duplicates. Incubations of cells with the test compounds lasted for 72 hours at 37° C., in 5% CO2 atmosphere and 100% humidity. At the end of incubation period, the cells were assayed by using the Calcein AM. Ten microliters of the stock solution were pipetted into each well and incubated further for 1 hours. Fluorescence (FD) was measured with the Labsystem FIA Reader Fluoroscan Ascent (UK).

B16-F0 melanoma = experiment: Calcein AM cytotoxicity, B16-F0; format: cell-based; details: Mus musculus, B16F0, 72 h, read-out: IC 50, B16-F0
Source text: as §1
(§4) Human T-lymphoblastic leukemia cell line CEM; promyelocytic HL-60 and monocytic U937 leukemias; breast carcinoma cell lines MCF-7, BT549, MDA-MB-231; glioblastoma U87MG cells; cervical carcinoma cells HELA; sarcoma cells U2OS and Saos2; hepatocellular carcinoma HepG2; mouse fibroblasts NIH3T3; mouse immortalized bone marrow macrophages B2.4 and B10A.4; P388D1 and L1210 leukemia; B16 and B16F10 melanomas were used for routine screening of compounds. The cells were maintained in Nunc/Corning 80 cm^2 plastic tissue culture flasks and cultured in cell culture medium (DMEM with 5 g/l glucose, 2 mM glutamine, 100 U/ml penicillin, 100 μg/ml streptomycin, 10% fetal calf serum and sodium bicarbonate).
(§5) The cell suspensions that were prepared and diluted according to the particular cell type and the expected target cell density (2.500-30.000 cells per well based on cell growth characteristics) were added by pipette (80 μl) into 96/well microtiter plates. Inoculates were allowed a pre-incubation period of 24 hours at 37° C. and 5% CO2 for stabilisation. Four-fold dilutions of the intended test concentration were added at time zero in 20 μl aliquots to the microtiter plate wells. Usually, test compound was evaluated at six 4-fold dilutions. In routine testing, the highest well concentration was […], but it can be the matter of change dependent on the agent. All drug concentrations were examined in duplicates. Incubations of cells with the test compounds lasted for 72 hours at 37° C., in 5% CO2 atmosphere and 100% humidity. At the end of incubation period, the cells were assayed by using the Calcein AM. Ten microliters of the stock solution were pipetted into each well and incubated further for 1 hours. Fluorescence (FD) was measured with the Labsystem FIA Reader Fluoroscan Ascent (UK). The tumour cell survival (GI50) was calculated using the following equitation: TCS═(FDdrug exposed well/mean FDcontrol wells)×100%. The GI50 value, the drug concentration lethal to 50% of the tumour cells, was calculated from the obtained dose response curves (FIG. 1).

[3] = test system: promyelocytic HL-60 leukemia; experiment: Calcein AM cytotoxicity, HL60; format: cell-based, human; details: Homo sapiens, HL-60, 72 h, read-out: IC 50, HL60
Source text: as §1, §2, §3

[4] = test system: T-lymphoblastic leukemia cell line CEM; experiment: Calcein AM cytotoxicity, CEM; format: cell-based, human
Source text: as §1, §2, §3

K-562 = experiment: Calcein AM cytotoxicity, K-562; format: cell-based; details: Homo sapiens, K562, 72 h, read-out: IC 50, K-562
Source text: as §1, §2, §3

[5] = test system: human diploid fibroblasts (HCA cells); experiment: Senescence, beta-galactosidase staining of human diploid fibroblasts; format: cell-based
Protocol: In this example, human diploid fibroblasts (HCA cells of various passage levels: passage 25—designated HCA25; passage 45—designated HCA45; passage 80—designated HCA80) were stained for β-galactosidase activity. The medium used for cell cultivation was removed, the cells were washed twice in […], and fixed in 2-3 ml of fixing solution comprised of a 2% formaldehyde and 0.2% glutaraldehyde in PBS. The cells were incubated at room temperature for 5 minutes, then washed twice with PBS. The cells were subsequently incubated at 37° C. (without CO2) for 1 to 16 hours in 2-3 ml of a solution comprising potassium ferricyanide (5 mM), potassium ferrocyanide (5 mM), MgCl2 (2 mM), X-gal (5-bromo-4-chloro-3-indolyl-β-D-galactopyranoside) (1 mg/ml), in citric/phosphate buffer, pH 6.0). […] In this experiment, senescent cells, but not other cells were stained blue due to the action of β-galactosidase on the substrate (FIG. 4).

[6] = test system: tobacco callus Nicotiana tabacum L. cv. Wisconsin 38; experiment: Cytokinin-dependent tobacco callus growth; format: cell-based; details: fresh callus weight at the concentration with highest activity
HOS = experiment: Calcein AM cytotoxicity, HOS; format: cell-based; details: Homo sapiens, HOS, 72 h
Source text: as §1, §4, §5

[7] = test system: Triticum aestivum cv. Hereward leaf tips; experiment: Retention of chlorophyll in excised wheat leaf tips; format: in vivo; details: chlorophyll retention at the concentration with highest activity
Procedure, shortened: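 Tips of first leaves from 7-day wheat (cv. Hereward) seedlings kept on compound solutions (10^−8 to 10^−4 M, from DMSO stock) for 96 h in the dark at 25 °C. Chlorophyll extracted in 80% ethanol at 80 °C and read at 665 nm. Activity at the best concentration expressed relative to 10^−4 M BAP (100%), five replicates.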

Human lymphocytes = experiment: Immunosuppressive activity, 3H-thymidine incorporation in concanavalin A activated lymphocytes; format: cell-based; details: Lymphocyte, 72 hours, [3H]-TdR, read-out: Human lymphocytes ED50
Source text: One of the most important parameters of specific cellular immunity is proliferative response of lymphocytes to antigens or polyclonal mitogens. The majority of normal mammalian peripheral lymphocytes comprise resting cells. Antigens or nonspecific polyclonal mitogens have the capacity to activate lymphoid cells and this is accompanied by dramatic changes of intracellular metabolism (mitochondrial activity, protein synthesis, nucleic acids synthesis, formation of blastic cells and cellular proliferation). […] Variety of in vitro assays was developed to measure proliferative response of lymphocytes. The most commonly used is ^3H-thymidine incorporation method.
During cell proliferation, DNA has to be replicated before the cell is divided into two daughter cells. This close association between cell doublings and DNA synthesis is very attractive for assessing cell proliferation. If labelled DNA precursors are added to the cell culture, cells that are about to divide incorporate the labelled nucleotide into their DNA. Traditionally, those assays usually involve the use of radiolabelled nucleosides, particularly tritiated thymidine ([^3H]-TdR). The amount of [^3H]-TdR incorporated into the cellular DNA is quantified by liquid scintillation counting.
Human heparinized peripheral blood was obtained from healthy volunteers by cubital vein punction. The blood was diluted in PBS (1:3) and mononuclear cells were separated by centrifugation in Ficoll-Hypaque density gradient (Pharmacia, 1.077 g/ml) at 2200 rpm for 30 minutes. Following centrifugation, lymphocytes were washed in PBS and resuspended in cell culture medium (RMPI 1640, 2 mM glutamine, 100 U/ml penicillin, 100 μg/ml streptomycin, 10% fetal calf serum and sodium bicarbonate).
The cells were diluted at target density of 1,100,000 cells/ml were added by pipette (180 μl) into 96/well microtiter plates. Four-fold dilutions of the intended test concentration were added at time zero in 20 μl aliquots to the microtiter plate wells. Usually, test compound was evaluated at six 4-fold dilutions. In routine testing, the highest well concentration was 266.7 μM. All drug concentrations were examined in duplicates. All wells with exception of unstimulated controls were activated with 50 μl of concanavalin A (25 μg/ml). Incubations of cells with test compounds lasted for 72 hours at 37° C., in 5% CO2 atmosphere and 100% humidity. At the end of incubation period, the cells were assayed by using the [^3H]-TdR:
Cell cultures were incubated with 0.5 μCi (20 μl of stock solution 500 μCi/ml) per well for 6 hours at 37° C. and 5% CO2. The automated cell harvester was used to lyse cells in water and adsorb the DNA onto glass-fiber filters in the format of microtiter plate. The DNA incorporated [^3H]-TdR was retained on the filter while unincorporated material passes through. The filters were dried at room temperature overnight, sealed into a sample bag with 10-12 ml of scintillant. The amount of [^3H]-TdR present in each filter (in cpm) was determined by scintillation counting in a Betaplate liquid scintillation counter. The effective dose of immunosuppressant (ED) was calculated using the following equation: ED=(CCPMdrug exposed well/mean CCPMcontrol wells)×100%. The ED50 value, the drug concentration inhibiting proliferation of 50% of lymphocytes, was calculated from the obtained dose response curves.

| SMILES | activity (%) [10^−5 mol · l^−1 BAP = 100%] [1] | IC50 [2] [µM] | IC50 (B16-F0 melanoma) [µM] | IC50 [3] [µM] | IC50 ([4]; Homo sapiens, 72 h) [µM] | IC50 (K-562) [µM] | SENESCENT CELLS (%) HCA25 ([5]; passage 25) [%] | SENESCENT CELLS (%) HCA45 ([5]; passage 45) [%] | SENESCENT CELLS (%) HCA80 ([5]; passage 80) [%] | Activity (%) [10^−4 mol · l^−1 BAP = 100%] [6] | IC50 (HOS) [µM] | Activity (%) [10^−4 mol · l^−1 BAP = 100%] [7] | EC50 (Human lymphocytes) [µM] | IC50 ([4]; 72 hours, listed as 3Cl4F BAP) [µM] | IC50 ([4]; 72 hours, listed as 2,4,6triMeO BAP) [µM] |
| --- | --- | --- | --- | --- | --- | --- | --- | --- | --- | --- | --- | --- | --- | --- | --- |
| COc1cc(CNc2ncnc3nc[nH]c23)ccc1O [6-(4-hydroxy-3-methoxybenzylamino)purine] | 10 (±2) % | > 167 | > 167 | > 167 | > 167 | > 167 |  |  |  |  |  |  |  |  |  |
| Oc1ccc(CNc2ncnc3nc[nH]c23)cc1O [6-(3,4-dihydroxybenzylamino)purine] | 8 (±3) % | > 167 | > 167 | > 167 | > 167 | > 167 | 5 | 4 | 29 | 4 (±1) % |  |  |  |  |  |
| COc1ccc(CNc2ncnc3nc[nH]c23)cc1 [6-(4-methoxybenzylamino)purine] | 23 (±2) % |  | 84.7 |  |  |  |  |  |  | 39 (±17) % | > 167 | 79 (±6) % |  |  |  |
| COc1ccc(CNc2ncnc3nc[nH]c23)cc1O [6-(3-hydroxy-4-methoxybenzylamino)purine] | 24 (±1) % | > 167 | > 167 | > 167 | > 167 | > 167 |  |  |  |  |  |  |  |  |  |
| Cc1cccc(CNc2ncnc3nc[nH]c23)c1 [6-(3-methylbenzylamino)purine] | 84 (±14) % | 102 | 164 | > 167 | > 167 | > 167 |  |  |  | 79 (±5) % |  | 111 (±16) % |  |  |  |
| O=[N+]([O-])c1ccc(CNc2ncnc3nc[nH]c23)cc1 [6-(4-nitrobenzylamino)purine] | 25 (±2) % | > 167 | > 167 | > 167 | > 167 | > 167 |  |  |  |  |  | 83 (±8) % |  |  |  |
| COc1ccc(CNc2ncnc3nc[nH]c23)c(O)c1 [2-hydroxy-4-methoxybenzylamino, 6-(2-hydroxy-4-methoxybenzylamino)purine] |  |  |  |  |  |  |  |  |  |  |  |  | 1.8 |  |  |
| Fc1ccc(CNc2ncnc3nc[nH]c23)cc1Cl [6-(3-chloro-4-fluorobenzylamino)purine] | 91 (±7) % | > 167 | > 167 | > 167 | 135 | > 167 |  |  |  | 90 (±1) % |  | 141 (±20) % |  | 95.8 |  |
| COc1cc(OC)c(CNc2ncnc3nc[nH]c23)c(OC)c1 [6-(2,4,6-trimethoxybenzylamino)purine] | 3 (±3) % | > 167 | > 167 | 153 | 63.6 | > 167 |  |  |  | 13 (±6) % |  | 6 (±4) % |  |  | 105 |
